The target in assay [1] is T1, Cyclooxygenase (Rattus norvegicus, UniProt P35355+Q63921).
T1 sequence (P35355 whole entry): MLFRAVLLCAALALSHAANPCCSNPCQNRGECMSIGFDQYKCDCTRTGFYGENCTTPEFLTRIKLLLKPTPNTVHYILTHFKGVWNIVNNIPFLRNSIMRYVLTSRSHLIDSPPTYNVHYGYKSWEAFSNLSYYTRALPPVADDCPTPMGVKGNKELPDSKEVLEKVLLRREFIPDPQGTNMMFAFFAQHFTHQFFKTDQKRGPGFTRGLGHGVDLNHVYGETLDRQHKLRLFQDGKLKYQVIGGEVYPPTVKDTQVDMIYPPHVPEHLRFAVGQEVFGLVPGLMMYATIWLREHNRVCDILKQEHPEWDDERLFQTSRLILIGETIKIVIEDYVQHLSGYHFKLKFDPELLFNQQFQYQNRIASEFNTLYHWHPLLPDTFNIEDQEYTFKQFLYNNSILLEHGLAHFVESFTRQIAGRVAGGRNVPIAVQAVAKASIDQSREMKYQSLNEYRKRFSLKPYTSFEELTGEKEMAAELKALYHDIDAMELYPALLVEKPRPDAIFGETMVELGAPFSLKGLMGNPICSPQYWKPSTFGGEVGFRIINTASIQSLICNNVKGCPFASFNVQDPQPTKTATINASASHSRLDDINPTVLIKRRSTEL
T1 sequence (Q63921 whole entry): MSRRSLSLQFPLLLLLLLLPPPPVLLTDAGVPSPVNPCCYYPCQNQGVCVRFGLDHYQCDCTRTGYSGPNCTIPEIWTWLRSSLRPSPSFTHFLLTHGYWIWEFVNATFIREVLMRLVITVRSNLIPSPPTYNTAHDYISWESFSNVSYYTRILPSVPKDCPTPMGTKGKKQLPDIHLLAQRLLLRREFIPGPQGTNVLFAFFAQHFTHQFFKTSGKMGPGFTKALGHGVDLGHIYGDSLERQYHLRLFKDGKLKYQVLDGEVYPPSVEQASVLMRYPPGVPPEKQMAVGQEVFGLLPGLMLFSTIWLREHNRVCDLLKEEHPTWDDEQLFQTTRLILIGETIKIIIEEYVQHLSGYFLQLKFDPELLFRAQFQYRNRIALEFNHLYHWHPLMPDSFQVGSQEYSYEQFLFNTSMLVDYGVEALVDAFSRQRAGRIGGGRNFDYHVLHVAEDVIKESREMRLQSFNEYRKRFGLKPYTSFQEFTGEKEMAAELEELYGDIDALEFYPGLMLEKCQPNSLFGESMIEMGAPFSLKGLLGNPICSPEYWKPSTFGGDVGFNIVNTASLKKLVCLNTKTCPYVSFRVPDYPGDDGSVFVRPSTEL
Nature of the assay: Inhibition of cyclooxygenase in rat RBL1 cells. The format is cell-based. The following applies: rbl-1.

Assay [2] concerns the target T2, Polyunsaturated fatty acid 5-lipoxygenase (Rattus norvegicus, UniProt P12527).
T2 sequence (P12527 whole entry): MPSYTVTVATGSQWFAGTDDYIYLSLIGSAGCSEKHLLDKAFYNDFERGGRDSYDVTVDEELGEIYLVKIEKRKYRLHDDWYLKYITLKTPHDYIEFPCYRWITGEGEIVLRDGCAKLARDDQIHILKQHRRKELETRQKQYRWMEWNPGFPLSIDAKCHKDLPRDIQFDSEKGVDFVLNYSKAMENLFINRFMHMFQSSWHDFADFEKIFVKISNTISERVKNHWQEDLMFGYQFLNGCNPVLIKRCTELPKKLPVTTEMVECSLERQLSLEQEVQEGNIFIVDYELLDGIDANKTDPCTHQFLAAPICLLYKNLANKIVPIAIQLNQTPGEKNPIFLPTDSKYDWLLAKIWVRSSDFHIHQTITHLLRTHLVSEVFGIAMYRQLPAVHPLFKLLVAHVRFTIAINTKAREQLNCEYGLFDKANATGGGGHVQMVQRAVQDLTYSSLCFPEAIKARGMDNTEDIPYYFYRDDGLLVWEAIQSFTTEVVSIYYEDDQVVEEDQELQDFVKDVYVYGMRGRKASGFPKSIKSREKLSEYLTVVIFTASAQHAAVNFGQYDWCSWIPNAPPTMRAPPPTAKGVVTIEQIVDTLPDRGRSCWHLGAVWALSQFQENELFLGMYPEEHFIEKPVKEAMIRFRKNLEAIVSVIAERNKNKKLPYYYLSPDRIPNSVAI
Nature of the assay: Inhibition of 5-lipoxygenase in rat RBL1 cells. Type of assay: cell-based, RBL-1.

`O=C(/C=C/c1ccc(O)c(O)c1)c1ccccc1O`: the IC50 (usually the midpoint of a concentration-inhibition curve) in assay [1] was found to be 0.023 µM. As to `COc1cccc(OC)c1/C=C/C(=O)c1ccccc1`, the 50% inhibitory concentration (IC50) in assay [1] and in assay [2] was 370 µM throughout.

With `COc1ccc(O)c(C(=O)/C=C/c2ccccc2)c1`, the IC50 in assay [1] and in assay [2] was 41 µM each time. Regarding `O=C(/C=C/c1ccc(O)c(O)c1)c1c(O)cc(O)cc1O` [3,4,2',4',6'-PENTAHYDROXYCHALCONE], the IC50 in assay [1] was 0.14 µM.

Turning to `Cc1ccc(C)c(C(=O)/C=C/c2ccccc2)c1`, the IC50 in assay [1] and in assay [2] was 16 µM in each case.

On to `CCOc1ccc(O)c(C(=O)/C=C/c2ccccc2)c1`, for which the IC50 in assay [1] and in assay [2] was 5.3 µM throughout.

`O=C(/C=C/c1ccc(O)c(O)c1)c1cccc(O)c1`: in assay [1], the IC50 was 0.0042 µM. As to `O=C(/C=C/c1ccccc1Cl)c1ccccc1`, the IC50 in assay [1] and in assay [2] was 92 µM throughout. Take `COc1ccc(OC(C)C)cc1C(=O)/C=C/c1ccccc1`: the IC50 in assay [1] and in assay [2] was 14 µM throughout. On to `CC(C)c1ccc(O)c(C(=O)/C=C/c2ccccc2)c1`, for which the IC50 in assay [1] and in assay [2] was 4 µM each time. As for `COc1ccc(C(=O)/C=C/c2ccc(O)c(OC)c2)cc1`, in assay [1], the IC50 was 12 µM. Take `COc1ccc(O)c(/C=C/C(=O)c2ccccc2)c1`: the IC50 in assay [1] and in assay [2] was 41 µM each time. For the compound `CCOc1ccc(OCC)c(C(=O)/C=C/c2ccccc2)c1`, the half-inhibitory concentration (IC50) in assay [1] and in assay [2] was 2.4 µM each time.

Take `CC(C)Oc1ccc(/C=C/C(=O)c2ccccc2)cc1`: the IC50 in assay [1] and in assay [2] was 41 µM in each case. In the case of `COc1cc(/C=C/C(=O)c2ccccc2)cc(OC)c1OC`, the IC50 in assay [1] and in assay [2] was 16 µM each time. Take `COc1ccc(C)cc1C(=O)/C=C/c1ccccc1`: the IC50 in assay [1] and in assay [2] was 24 µM throughout. For the compound `O=C(/C=C/c1ccc([N+](=O)[O-])cc1)c1ccccc1`, the half-inhibitory concentration (IC50) in assay [1] and in assay [2] was 23 µM each time. Turning to `O=C(/C=C/c1ccc(O)cc1)c1ccc(O)cc1O` [ISOLIQUIRITIGENIN], the concentration for half-maximal inhibition (IC50) in assay [1] was 35 µM.

In the case of `Cc1ccc(/C=C/C(=O)c2ccccc2)c(C)c1`, the IC50 in assay [1] and in assay [2] was 17 µM in each case. Turning to `COc1ccc(OC)c(/C=C/C(=O)c2ccccc2)c1`, the concentration for half-maximal inhibition (IC50) in assay [1] and in assay [2] was 7.8 µM each time.

As to `COc1ccc(OC)c(C(=O)/C=C/c2ccccc2)c1`, the IC50 in assay [1] and in assay [2] was 7.8 µM in each case. As for `Cc1cccc(/C=C/C(=O)c2ccccc2)c1`, the IC50 in assay [1] and in assay [2] was 27 µM in each case. For the compound `CC(C)Oc1ccc(O)c(C(=O)/C=C/c2ccccc2)c1`, the IC50 in assay [1] and in assay [2] was 11 µM in each case.

Turning to `O=C(/C=C/c1ccc(Cl)cc1)c1ccccc1` [4-CHLORO CHALCONE], the IC50 in assay [1] and in assay [2] was 85 µM each time. Consider `COc1cccc(/C=C/C(=O)c2ccccc2)c1`, for which the half-inhibitory concentration (IC50) in assay [1] and in assay [2] was 6.5 µM each time.

In assay [1], `O=C(/C=C/c1ccc(O)c(O)c1)c1ccc(O)cc1O` [BUTEIN] registered an IC50 of 0.0046 µM. In the case of `COc1ccccc1/C=C/C(=O)c1ccccc1`, the IC50 in assay [1] and in assay [2] was 27 µM throughout.

On to `Cc1cc(C)c(/C=C/C(=O)c2ccccc2)c(C)c1`, for which the IC50 in assay [1] and in assay [2] was 400 µM in each case. Consider `Cc1ccc(O)c(C(=O)/C=C/c2ccccc2)c1`, for which the IC50 in assay [1] and in assay [2] was 39 µM in each case.

As for `CCOc1ccc(OC)c(C(=O)/C=C/c2ccccc2)c1`, the IC50 in assay [1] and in assay [2] was 38 µM in each case. Regarding `Cc1ccc(/C=C/C(=O)c2ccccc2)cc1`, the 50% inhibitory concentration (IC50) in assay [1] and in assay [2] was 76 µM in each case.

As to `CCCCOc1ccc(O)c(C(=O)/C=C/c2ccccc2)c1`, the IC50 in assay [1] and in assay [2] was 1 µM each time.

For the compound `CCOc1ccc(OC)cc1C(=O)/C=C/c1ccccc1`, the IC50 in assay [1] and in assay [2] was 27 µM in each case. For the compound `CN(C)c1ccc(/C=C/C(=O)c2ccccc2)cc1`, the IC50 in assay [1] and in assay [2] was 4.7 µM each time.

As to `COc1ccc(/C=C/C(=O)c2ccccc2)c(O)c1`, the IC50 in assay [1] and in assay [2] was 15 µM throughout. Regarding `COc1ccc(/C=C/C(=O)c2ccccc2)cc1` [4-METHOXY CHALCONE], the IC50 in assay [1] and in assay [2] was 20 µM throughout. As for `COc1ccc(/C=C/C(=O)c2ccccc2)cc1OC`, the IC50 in assay [1] and in assay [2] was 18 µM each time. Regarding `O=C(/C=C/c1ccccc1)c1ccccc1` [CHALCONE], the IC50 in assay [1] and in assay [2] was 43 µM in each case. Regarding `O=C(/C=C/c1ccccc1)c1cc(O)ccc1O`, the IC50 in assay [1] and in assay [2] was 64 µM in each case. `O=C(/C=C/c1ccccc1C(F)(F)F)c1ccccc1`: the IC50 in assay [1] and in assay [2] was 58 µM throughout.

Turning to `COc1cc(/C=C/C(=O)c2ccccc2)ccc1O`, the IC50 in assay [1] and in assay [2] was 9 µM each time. Turning to `CN(C)c1cccc(/C=C/C(=O)c2ccccc2)c1`, the half-maximal inhibitory concentration (IC50) in assay [1] and in assay [2] was 9.8 µM in each case. Consider `O=C(/C=C/c1ccc(O)c(O)c1)c1ccccc1`, for which the IC50 in assay [1] is 0.043 µM.

`COc1ccc(/C=C/C(=O)c2ccccc2)c(OC)c1`: the concentration for half-maximal inhibition (IC50) in assay [1] and in assay [2] was 10 µM each time. For `COc1cc(/C=C/C(=O)c2ccc(Cl)cc2)ccc1O`, the half-inhibitory concentration (IC50) in assay [1] was determined as 8.9 µM.
